We go through two compounds from patent publication US20200222391A1, “SOLID PREPARATION OF CARIPRAZINE FOR ORAL ADMINISTRATION” (Richter Gedeon Nyrt., priority 2017, published 2020).

Series [1] can be described thus: pH-solubility of cariprazine hydrochloride at 37° C. The format is physicochemical. An excerpt: Cariprazine salts are very well soluble in acidic environment. However, drugs, which are soluble in acidic environment can be practically insoluble in neutral or basic environment.
Series [2] in a line: Caco-2 model of drug absorption (permeability). The format is in vitro ADME. The settings on record: human, read-out: permeability directional ratio (PDR). Here is the method: In the Caco-2 model of drug absorption, the permeability coefficients of cariprazine in inward and outward directions were calculated to be 26.4.10-6 cm/sec and 51.2.10-6 cm/sec, respectively (permeability directional ratio (PDR): 1.9) (Artursson P & Karlsson J (1991). “Correlation between oral drug absorption in humans and apparent drug permeability coefficients in human intestinal epithelial (Caco-2) cells”. Biochem Biophys Res Comm 175 (3): 880-5 and internal data).

Molecules are shown by their SMILES. Counter-ions that a name gives are not always drawn. Like-named read-outs stand apart in the source and are kept apart here.

What is called solubility is how much of the substance goes into solution per volume. On to `CN(C)C(=O)N[C@H]1CC[C@H](CCN2CCN(c3cccc(Cl)c3Cl)CC2)CC1` [cariprazine hydrochloride], for which, in series [1], the “pH value of best solubility” value is approximately 3. Further, the solubility is 3260 µg/mL in series [1] (37 °C, pH 1, simulated gastric fluid, pH 1, read-out: Solubility); 8930 µg/mL in series [1] (37 °C, pH 2, simulated gastric fluid, pH 2, read-out: Solubility); 11000 µg/mL in series [1] (37 °C, pH 3, aqueous buffer, pH 3, read-out: Solubility); 3230 µg/mL in series [1] (37 °C, pH 4, aqueous buffer, pH 4, read-out: Solubility); 351 µg/mL in series [1] (37 °C, pH 5, aqueous buffer, pH 5, read-out: Solubility); 149 µg/mL in series [1] (37 °C, pH 5.5, aqueous buffer, pH 5.5, read-out: Solubility). Besides, the solubility in series [1] (37 °C, pH 6, aqueous buffer, pH 6, read-out: Solubility) amounted to 18.8 µg/mL; in series [1] (37 °C, pH 7, aqueous buffer, pH 7, read-out: Solubility), 1 µg/mL; in series [1] (pH 1, hydrochloride) it was 3257.9 µg/mL; in series [1] (pH 7, hydrochloride), 1.3 µg/mL.
For `CN(C)C(=O)N[C@H]1CC[C@H](CCN2CCN(c3cccc(Cl)c3Cl)CC2)CC1` [cariprazine, trans-N-{4-[2-[4-(2,3-dichlorophenyl)-piperazin-1-yl]-ethyl]-cyclohexyl}-N′,N′-dimethylurea], the efflux ratio in series [2] worked out at 1.9.
